Reference: patent EP4799646A1, “COMPOSITION AND METHOD FOR INCREASING BIOAVAILABILITY OF ACTIVE INGREDIENT” (Everfront Biotech Inc., priority 2023, dated 2025)
In brackets after ≈: the same amount, converted by molar mass. Read-outs that look alike come from different tables or passages of the source.

Assays:
[1] = Appearance (phase separation) of compositions after preparation; solubility of BP in sesame oil; format: physicochemical; details: concluded from absence of phase separation in Compositions 1 to 4
Method: In a glass bottle, components were mixed with the dosage ratios shown in Table 1 to provide a mixture, and the mixture was rapidly stirred with a magnetic stirrer for 20 minutes to form a homogeneous liquid, thereby respectively preparing Compositions 1 to 4. After removing the magnetic stirrer, the glass bottle was tightly sealed and its appearance was observed and photographed, the results are shown in FIG. 1. Table 1: Volume Percentages of Composition in Compositions 1 to 4.

[2] = tested on: pancreatic cancer cell lines Mia-PaCa2; assay: MTT assay, IC50 against pancreatic cancer cells (cytotoxicity study II); format: cell-based; details: Homo sapiens
Method: The culture medium in each well of the cell culture plates was removed, and MTT reagent was added (to reach a final concentration of 0.5 mg/mL in each well). The plates were then placed in a 37°C, 5% CO2 incubator for 2 to 4 hours to form purple needle-like formazan crystals. Subsequently, the solution was aspirated, and 500 µL of dimethyl sulfoxide (DMSO) was added to each well. After shaking with a shaker for 5 to 10 minutes to completely dissolve the purple crystals, the absorbance at a wavelength of 570 or 595 nm was measured using an ELISA reader. The survival rate of the cells was calculated based on the absorbance, with the blank group as the baseline (the survival rate of the blank group was set to 100%). The data of the experimental group serum collected 2 hours after oral administration of the soft capsules are shown in FIG. 7; the data of the experimental group serum collected at 1, 4, 8, or 24 hours are shown in FIG. 8.
Cell cultures in this example were all conducted in an environment of 95% relative humidity, 5% CO2, and 37°C.
Pancreatic cancer cell lines Mia-PaCa2 were grouped and respectively cultured in 96-well cell culture plates for 24 hours using the following culture media: • 1. "Z-BP" Group: Mia-PaCa2 cell culture medium supplemented with Z-BP. • 2. […]

CCCC=C1OC(=O)c2ccccc21 [BP, n-butylidenephthalide]
solubility in sesame oil [1]: good solubility

CCC/C=C1\OC(=O)C2=C1CCC=C2 [LG, Ligustilide]
IC50 ([2]; MIA PaCa-2, Mia-PaCa2 cells, 24 hours, MTT, oil groups: active mixed with oil in equal proportions, read-out: IC50): 44.1 µg/mL (≈ 232 µM)

CCC/C=C1\OC(=O)c2ccccc21 [Z-BP, (Z)-n-butylidenephthalide]
IC50 ([2]; MIA PaCa-2, 24 h): 63.8 µg/mL (≈ 339 µM)
